Assay results from patent publication US9289400B2, “D3 dopamine receptor agonists to treat dyskinesia in parkinson's disease” (priority 2010, dated 2016).
Where “and” joins values, the source holds several entries; their conditions need not be identical. Identical values can stand only once. Entries after “also recorded” stand apart in the source; their conditions may differ. Like-named read-outs stand apart in the source and are kept apart here. Marks after values point to notes of the source that are not given here.

Key:
monoamine transporter = assay: Monoamine transporter uptake activity; assay type: cell-based; details: FIG. 23
D2S dopamine receptor [1] = molecular target: T1, D2S dopamine receptor (Homo sapiens (Human), UniProt P14416); assay: Adenylyl cyclase inhibition (forskolin-induced cAMP) in AtT-20 cells stably expressing D2S; assay type: cell-based; details: for EC50: AtT-20 cells; for Adenylyl cyclase inhibition: agonist type: versus full agonist quinpirole
Method: (§1) In the second functional assay, the ability of D2-like dopamine receptors to inhibit adenylyl cyclase activity is assessed. The ability of the lead compound to dose-dependently decrease forskolin-induced cAMP levels is measured. The IC50 values for each receptor subtype is determined by fitting the data points using the Hill equation. Previously, the EC50 and IC50 values for dopamine and quinpirole has been determined in these cell lines in both functional assays.
(§2) AtT-20 mouse pituitary cells were grown in Ham's F10 medium with 5% FBS, 10% heat-inactivated horse serum, 2 mM glutamine and 50 μg/ml gentamicin (Invitrogen, Carlsbad, Calif.). AtT-20 cells stabling expressing the human D2S, D2L, D3, and D4.2 and receptor were maintained in the above F10 culture media supplemented with 500 μg/ml G418 (Invitrogen). For electrophysiological characterization, cells were plated onto glass coverslips coated with 40 μg/ml poly L-lysine (Sigma-Aldrich). The generation and characterization of the AtT-20 cells stably expressing various human dopamine receptors have been previously reported (Kuzhikandathil & Oxford, 2000, J. Gen. Physiol. 115:697-706; Kuzhikandathil et al., 1998, Mol. Cell. Neurosci. 12:390-402; Kuzhikandathil & Bartoszyk, 2006, Neuropharm. 51:873-884; Westrich & Kuzhikandathil, 2007, Biochim. Biophys. Acta-MCR 1773:1747-1758; Kuzhikandathil et al., 2004, Mol. Cell. Neurosci. 26:144-155; Westrich et al., 2010, Biochem. Pharmacol. 79:897-907).
(§3) Cyclic AMP (cAMP) levels were assessed using the cAMP Biotrak Enzymeimmunoassay (EIA) kit (GE Healthcare, Piscataway, N.J., USA) as described previously (Kuzhikandathil & Bartoszyk, 2006, Neuropharm. 51:873-884). The cAMP levels in each treated sample were assayed in triplicate and the entire experiment repeated three independent times.
(§4) To compare the functional effects of the new class of D3 receptor agonists, PBZI (Table 2) and ES609 (Table 3) were tested on AtT-20 cells stably expressing human D3, D2S, D2L or D4.2. Functional efficacy was determined by assessing the ability of PBZI and ES609 to inhibit adenylyl cyclase or activate GIRK channels coupled to these “D2-like” dopamine receptors. The EC50 values of PBZI and ES609 for inhibiting adenylyl cyclase and activating GIRK channels were in the range of 0.2 nM to 30 nM for D3 receptors.

D3 dopamine receptor [2] = molecular target: T2, D3 dopamine receptor (Homo sapiens (Human), UniProt P35462); assay: Adenylyl cyclase inhibition (forskolin-induced cAMP) in AtT-20 cells stably expressing D3; assay type: cell-based; details: for Adenylyl cyclase inhibition: agonist type: versus full agonist quinpirole
Method: as §1, §2, §3, §4
Target sequence in this assay (P35462 other isoform, or with tags, fused parts or gaps): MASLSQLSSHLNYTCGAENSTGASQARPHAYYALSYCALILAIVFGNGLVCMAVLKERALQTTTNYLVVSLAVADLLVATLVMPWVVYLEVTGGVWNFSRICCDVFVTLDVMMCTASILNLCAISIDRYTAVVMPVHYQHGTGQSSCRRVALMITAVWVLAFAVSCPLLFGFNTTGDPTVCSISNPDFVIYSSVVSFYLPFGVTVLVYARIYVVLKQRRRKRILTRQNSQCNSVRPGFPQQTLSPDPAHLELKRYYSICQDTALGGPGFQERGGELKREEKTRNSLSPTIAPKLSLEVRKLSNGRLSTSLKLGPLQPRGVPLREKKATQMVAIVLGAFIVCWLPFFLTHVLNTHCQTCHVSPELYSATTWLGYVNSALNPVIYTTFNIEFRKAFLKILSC

D2S dopamine receptor [3] = molecular target: T1, D2S dopamine receptor; assay: GIRK channel activation, whole cell voltage clamp, AtT-20 cells stably expressing D2S; assay type: cell-based; details: for GIRK channel activation: agonist type: versus full agonist quinpirole
Method: (§5) The activation of the GIRK channels was measured electrophysiologically using whole cell voltage clamp recording (Kuzhikandathil et al., 2004, Mol. Cell. Neurosci. 26:144-155). The GIRK channel responses elicited with new ligands were compared to quinpirole, a classical full agonist of D2, D3 and D4 dopamine receptors. The adenylyl cyclase inhibition was determined using a commercially available ELISA assay (Westrich & Kuzhikandathil, 2007, Biochim. Biophys. Acta-Mol. Cell. Res. 1773:1747-1758).
(§6) In the first assay, whole cell voltage clamp recording is used to measure GIRK response to increasing concentrations of the lead compound (0.01 nM to 3,000 nM dose range). The EC50 values for each receptor subtype is determined by fitting the data points using the Hill equation.
as §2
(§7) Agonist-activated currents were measured by the whole-cell patch clamp technique in voltage clamp and current clamp mode as described previously (Kuzhikandathil & Oxford, 2000, J. Gen. Physiol. 115:697-706; Kuzhikandathil et al., 1998, Mol. Cell. Neurosci. 12:390-402; Kuzhikandathil & Bartoszyk, 2006, Neuropharm. 51:873-884; Westrich & Kuzhikandathil, 2007, Biochim. Biophys. Acta-MCR 1773:1747-1758; Kuzhikandathil et al., 2004, Mol. Cell. Neurosci. 26:144-155; Westrich et al., 2010, Biochem. Pharmacol. 79:897-907). Drug solutions were delivered to cells via a multi-barreled micropipette array. The current responses were normalized to the cell capacitance, to account for variation in cell size.
as §4

D2L dopamine receptor = D2L dopamine receptor (Homo sapiens (Human), UniProt P14416); assay: GIRK channel activation, whole cell voltage clamp, AtT-20 cells stably expressing D2L; assay type: cell-based; details: for GIRK channel activation: agonist type: versus full agonist quinpirole
Method: as §5, §6, §2, §7, §4

D3 dopamine receptor [4] = molecular target: T2, D3 dopamine receptor; assay: D3 receptor tolerance and SRT: GIRK response to repeated agonist application in AtT-20 cells; assay type: cell-based; details: AtT-20 cells expressing human D3, 100-300 nM agonist, repeated ~60 s applications
Method: To determine whether a compound abolishes the D3 receptor tolerance and SRT, the D3 receptor-activated GIRK response to two consecutive treatments of the lead compound is measured. […] Drug solutions were delivered to cells via a multi-barreled micropipette array. The current responses were normalized to the cell capacitance, to account for variation in cell size.
To identify agonists that might modulate D3 receptor tolerance and SRT properties, ten distinct agonists were screened for their ability to induce tolerance and SRT, using the D3 receptor-GIRK channel signaling pathway as an assay.
Target sequence in this assay (P35462 other isoform, or with tags, fused parts or gaps): as above

D3 dopamine receptor [5] = molecular target: T2, D3 dopamine receptor; assay: as above; assay type: cell-based; details: 1000 nM PBZI applied simultaneously with 100 nM dopamine
Target sequence in this assay (P35462 other isoform, or with tags, fused parts or gaps): as above

Balb/c mice = assay: Locomotor activity (open field, TruScan) in Balb/c mice
Method: Therefore, three different doses of the lead compound are administered and their effects on locomotor activity are determined. The dosage is determined based on the functional EC50 values and binding affinity of the lead compound from the cell-based assays described above. The compound is administered to Balb/c mice and locomotor activity is monitored using the TruScan Automated Behavioral Monitoring system (Coulborn Instruments).
A total of 12 young adult, male Balb/c mice were obtained form Charles River, Inc. (Wilmington, Mass.), and housed in groups of four in standard cages. The animals were maintained on a 12 hour light/12 hour dark cycle and permitted ad lib access to food and water. Experiments were conducted during the animal's light phase. […] For PD128907, separate groups of Balb/c mice received subcutaneous injections of saline (n=4) or 0.05 or 0.4 mg/kg PD128907 (n=4, for each). Locomotion (‘distance traveled’) scores of drug-injected animals were collapsed across 10-min intervals and for comparison purposes were normalized to saline injected animals (FIG. 12A). The experiment was conducted on three separate occasions.

D3 dopamine receptor [6] = molecular target: T2, D3 dopamine receptor; assay: Current clamp recording of spontaneous action potentials in AtT-20 cells expressing D3; assay type: cell-based; details: 100 nM dopamine or 300 nM PBZI
Target sequence in this assay (P35462 other isoform, or with tags, fused parts or gaps): as above

c-fos expression = details: in vivo; cited from earlier work
D1-like receptors = details: cited from earlier work
D3 dopamine receptor [7] = molecular target: T2, D3 dopamine receptor; details: cited from earlier work
Target sequence in this assay (P35462 whole entry): as the sequence (P35462 other isoform, or with tags, fused parts or gaps) above, with S9G counted along it

[8] = AtT-20 cells, D3, read-out: Adenylyl cyclase inhibition EC50
[9] = D3 receptors, range over both compounds and both assays, read-out: EC50 for inhibiting adenylyl cyclase and activating GIRK channels

T1 sequence (P14416 other isoform, or with tags, fused parts or gaps): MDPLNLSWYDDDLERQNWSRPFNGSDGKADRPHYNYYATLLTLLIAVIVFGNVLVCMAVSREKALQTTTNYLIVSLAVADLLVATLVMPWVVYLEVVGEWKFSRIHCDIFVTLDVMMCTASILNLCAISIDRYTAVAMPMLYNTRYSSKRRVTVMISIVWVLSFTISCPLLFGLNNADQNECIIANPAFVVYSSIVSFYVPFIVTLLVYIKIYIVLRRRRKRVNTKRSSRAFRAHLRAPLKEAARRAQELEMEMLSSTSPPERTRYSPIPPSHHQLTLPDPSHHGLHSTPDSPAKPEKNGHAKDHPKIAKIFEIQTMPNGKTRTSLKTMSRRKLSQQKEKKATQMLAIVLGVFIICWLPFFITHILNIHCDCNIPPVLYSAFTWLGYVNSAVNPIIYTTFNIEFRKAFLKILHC
D2L dopamine receptor, sequence (P14416 whole entry): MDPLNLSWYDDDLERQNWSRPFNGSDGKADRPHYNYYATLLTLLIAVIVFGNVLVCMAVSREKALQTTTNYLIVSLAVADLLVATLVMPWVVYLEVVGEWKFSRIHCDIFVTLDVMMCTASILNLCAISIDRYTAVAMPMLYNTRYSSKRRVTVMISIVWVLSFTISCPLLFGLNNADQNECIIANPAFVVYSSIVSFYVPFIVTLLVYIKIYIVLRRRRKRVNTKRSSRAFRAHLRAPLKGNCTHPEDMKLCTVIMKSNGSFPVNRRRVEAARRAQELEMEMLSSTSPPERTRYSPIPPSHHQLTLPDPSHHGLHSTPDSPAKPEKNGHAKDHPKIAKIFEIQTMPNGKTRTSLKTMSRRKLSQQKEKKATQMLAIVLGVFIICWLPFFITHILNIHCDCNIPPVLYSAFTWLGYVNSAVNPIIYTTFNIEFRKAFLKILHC

Compound: CC(N)CCc1ccccc1Cl (stereo not shown) [ES609]
- monoamine transporter uptake activity (monoamine transporter): inhibits monoamine transporter uptake activity
- Adenylyl cyclase inhibition Ratio of ES609 to quinpirole response (at 300 nM) (D2S dopamine receptor [1]; 300 nM): 0.29*
- EC50 (D2S dopamine receptor [1]): 0.0024 µM
- Adenylyl cyclase inhibition: agonist type (D2S dopamine receptor [1]): partial agonists
- Adenylyl cyclase inhibition: agonist type (D2S dopamine receptor [1]; listed as ES0609): Partial
- EC50 (D3 dopamine receptor [2]; [8]): 0.00015 µM
- Adenylyl cyclase inhibition Ratio of ES609 to quinpirole response (at 300 nM) (D3 dopamine receptor [2]; D3, 300 nM): 0.71
- Adenylyl cyclase inhibition: agonist type (D3 dopamine receptor [2]; D3): full agonists
- Adenylyl cyclase inhibition: agonist type (D3 dopamine receptor [2]; D3, listed as ES0609): Full
- EC50 (D3 dopamine receptor [2]; [9]): 0.0002 to 0.03 µM
- GIRK current compared with quinpirole-induced current (D2S dopamine receptor [3]; 100 nM): significantly less than the quinpirole-induced current
- GIRK channel activation Ratio of ES609 to quinpirole response (at 300 nM) (D2S dopamine receptor [3]; 300 nM): 0.30*
- GIRK channel activation: agonist type (D2S dopamine receptor [3]): partial agonists
- GIRK channel activation: agonist type (D2S dopamine receptor [3]; listed as ES0609): Partial
- GIRK channel activation Ratio of ES609 to quinpirole response (at 300 nM) (D2L dopamine receptor; 300 nM): 0.32*
- GIRK channel activation: agonist type (D2L dopamine receptor): partial agonist
- GIRK channel activation: agonist type (D2L dopamine receptor; listed as ES0609): Partial
- D3 receptor tolerance and SRT properties (agonist-induced GIRK response) (D3 dopamine receptor [4]): did not induce tolerance and SRT; also recorded: did not show tolerance and SRT
- D3 receptor tolerance and SRT properties (agonist-induced GIRK response) (D3 dopamine receptor [4]; listed as ES 609): also abolished D3 receptor tolerance and SRT properties

Compound: CCCN1CC[C@@H]2c3cc(O)ccc3CC[C@@H]21 [PBZI, (3aS,9bR)-3-propyl-1,2,3a,4,5,9b-hexahydrobenzo[e]indol-8-ol]
- competition with dopamine to block development of tolerance and SRT (D3 dopamine receptor [5]): able to compete effectively with dopamine; also recorded: blocked the development of tolerance and SRT
- Adenylyl cyclase inhibition Ratio of PBZI to quinpirole response (at 300 nM) (D2S dopamine receptor [1]; 300 nM): 0.29*
- EC50 (D2S dopamine receptor [1]): 0.14 µM and > 0.15 µM
- Adenylyl cyclase inhibition: agonist type (D2S dopamine receptor [1]): partial agonists
- effect on locomotion (Balb/c mice; 1 mg/kg sc): no significant effect
- reduction of locomotion (Balb/c mice; 10 mg/kg sc, within 20-min): approximately 90%
- duration of hypoactivity post-injection (Balb/c mice; PBZI 10 mg/kg sc, PD128907 0.4 mg/kg sc): 40 min
- locomotor response (Balb/c mice; sc, PBZI 10 mg/kg, PD128907 0.05-0.4 mg/kg, normalized to saline): only elicit hypoactivity; also recorded: monophasic hypoactive locomotor response; also recorded: dose-dependent and monophasic inhibition of locomotion
- EC50 (D3 dopamine receptor [2]; [8]): 0.035 µM
- Adenylyl cyclase inhibition Ratio of PBZI to quinpirole response (at 300 nM) (D3 dopamine receptor [2]; D3, 300 nM): 0.97
- Adenylyl cyclase inhibition: agonist type (D3 dopamine receptor [2]; D3): full agonists and full
- EC50 (D3 dopamine receptor [2]; [9]): 0.0002 to 0.03 µM
- GIRK channel activation Ratio of PBZI to quinpirole response (at 300 nM) (D2S dopamine receptor [3]; 300 nM): 0.48*
- EC50 (D2S dopamine receptor [3]; AtT-20 cells): 0.053 µM
- GIRK channel activation: agonist type (D2S dopamine receptor [3]): partial agonists
- GIRK channel activation Ratio of PBZI to quinpirole response (at 300 nM) (D2L dopamine receptor; 300 nM): 0.75
- GIRK channel activation: agonist type (D2L dopamine receptor): full agonist
- inhibition of spontaneous action potentials on repeated application (D3 dopamine receptor [6]): inhibited spontaneous action potentials during the first application and subsequent applications; also recorded: inhibited the spontaneous action potentials during the first and second treatment
- D3 receptor tolerance and SRT properties (agonist-induced GIRK response) (D3 dopamine receptor [4]): does not elicit tolerance and SRT properties; also recorded: abolished both tolerance and SRT properties; also recorded: did not induce tolerance; also recorded: does not induce tolerance and SRT; also recorded: did not show either tolerance or SRT properties; also recorded: completely abolished the receptors' tolerance and SRT properties
- D3 receptor tolerance and SRT properties (agonist-induced GIRK response) (D3 dopamine receptor [4]; listed as cis-80H-PBZI): abolished the tolerance property
- c-fos expression in medial prefrontal cortex and shell region of nucleus accumbens (c-fos expression): specific increases in c-fos expression
- Binding at D1-like receptors and a panel of other neurotransmitter receptors, ion channels and transporters (D1-like receptors): negligible
- Ki (D3 dopamine receptor [7]; D3, Scheideler et al., 1997, read-out: Ki): 0.027 µM
- Ki (D3 dopamine receptor [7]; source not stated, read-out: D3 dopamine receptor binding affinity Ki): 0.022 µM
